Assay [1] relates to RNA synthesis in L 1210 cells. Briefly: Inhibition of RNA synthesis in L 1210 cells (radioactive precursor incorporation). As to conditions: Mus musculus. The format is cell-based. As for the experimental part: (§1) For measurement of IC50 on the synthesis of nucleic acids, 5×10^5 L 1210 cells/ml were pre-cultured at 37° C. for 1-2 hours in RPMI 1640 medium containing 10% calf serum in a CO2 incubator. One of the anthracyclinone glycosides listed in Table 4 was added and incubated for a further 15 minutes. Then 0.05 μCi/ml of ^14 C-uridine or ^14 C-thymidine was added and incubated for a further 60 minutes. At the end of incorporation of the radioactive compound, 10% trichloroacetic acid was poured into the cell suspension for termination of the reaction as well as forced precipitation. The acid-insoluble fraction was collected, rinsed three times with 5% trichloroacetic acid and then dissolved in formic acid for measurement of radioactivity. Based on the radioactivities of the test and control runs, IC50 was calculated.

Assay [2] deals with L 1210 leukemia cells. Briefly: Inhibition of growth of L 1210 leukemia cells in culture. Format: cell-based. The following applies: Mus musculus, L1210, 48 h, read-out: IC50 Cell growth. As for the experimental part: L 1210 culture cells (5×10^4 cells/ml; final cell concentration) were inoculated to RPMI 1640 medium (Roswell Park Memorial Institute 1640 medium) containing 20% calf serum and then one of the anthracyclinone glycosides listed in Table 4 was added to make a final concentration of 0.1-5 μg/ml. After incubation at 37° C. for 2 days in a CO2 incubator, the number of cells was counted. Based on these counts, the 50% inhibitory concentration (IC50) of each test compound on the growth of L 1210 leukemia cells was calculated relative to the control test.

Assay [3] deals with DNA synthesis in L 1210 cells. Nature of the assay: Inhibition of DNA synthesis in L 1210 cells (radioactive precursor incorporation). The format is cell-based. The following applies: Mus musculus. As for the experimental part: as §1
Assay [4] relates to L 1210 leukemia. Briefly: Antitumor activity: prolongation of survival time of CDF1 mice after intraperitoneal transplantation of L 1210 leukemia cells. Format: in vivo. The following applies: Mus musculus, L1210, ip, 720 h, read-out: Prolongation rate of the survival time (T/C). As for the experimental part:
After intraperitoneal transplantation of L 1210 leukemia cells (1×10^5 cells/mouse), 0.25 ml/animal of solutions of one of the anthracyclinone glycosides (HCl salts) of the present invention in physiological saline was intraperitoneally injected to CDF1 mice every day for 9 days.

Setting [5] is: L1210, read-out: IC50 RNA synthesis.
[6] abbreviates: L1210, read-out: IC50 DNA synthesis.
The mark [7] stands for this setting: L1210, L 1210 cells, 15 min pre-incubation, 60 min with radioactive precursor (^14 C-uridine or ^14 C-thymidine), read-out: IC50 RNA synthesis.
Setting [8] is: L 1210 cells, RPMI 1640 with 20% calf serum, 37° C., 2 days.
Setting [9] is: L1210, L 1210 cells, 15 min pre-incubation, 60 min with radioactive precursor (^14 C-uridine or ^14 C-thymidine), read-out: IC50 DNA synthesis.

In brackets after ≈: the same amount, converted by molar mass. Where two headings read alike, the source gives them in different places. Where only a bound is given, the exact number is not on record here.

As a reminder, the IC50 is the midpoint of a concentration-inhibition curve.

`CN[C@H]1C[C@H](O[C@H]2C[C@](O)(C(C)=O)Cc3c(O)c4c(c(O)c32)C(=O)c2c(OC)cccc2C4=O)O[C@@H](C)[C@H]1O[C@H]1C[C@H](O)[C@H](O[C@H]2CCC(=O)[C@H](C)O2)[C@H](C)O1` [DMN--DmDC]: the results for the IC50 in assay [1] (setting [5]), in assay [2] and in assay [3] (setting [6]) were 0.065 µg/mL (≈ 0.0829 µM), 0.023 µg/mL (≈ 0.0293 µM) and 0.62 µg/mL (≈ 0.791 µM), respectively.
As to `COc1cccc2c1C(=O)c1c(O)c3c(c(O)c1C2=O)C[C@@](O)(C(C)=O)C[C@@H]3O[C@H]1C[C@H](N(C)C)[C@H](O[C@H]2C[C@H](O)[C@H](O[C@H]3CCC(=O)[C@H](C)O3)[C@H](C)O2)[C@H](C)O1` [DMN--RDC], the IC50 in assay [1] (setting [7]) was found to be 0.017 µg/mL (≈ 0.0213 µM). In assay [2] (setting [8]), the IC50 is under 0.01 µg/mL. In assay [4], the response vs control in vivo at 0.32 mg/kg came to 126%, the response vs control in vivo at 0.63 mg/kg amounted to 135%, the response vs control in vivo at 1.25 mg/kg is 184% and the response vs control in vivo at 2.5 mg/kg stood at 187%. For the same molecule, the response vs control in vivo at 5 mg/kg in assay [4] came out at 126%. In addition, the half-inhibitory concentration (IC50) in assay [3] (setting [9]) was 0.17 µg/mL (≈ 0.213 µM).
`COc1cccc2c1C(=O)c1c(O)c3c(c(O)c1C2=O)C[C@@](O)(C(=O)CO)C[C@@H]3O[C@H]1C[C@H](N(C)C)[C@H](O[C@H]2C[C@H](O)[C@H](O[C@H]3CCC(=O)[C@H](C)O3)[C@H](C)O2)[C@H](C)O1` [AMN--RDC]: in assay [1] (setting [7]), the IC50 was determined as 0.011 µg/mL (≈ 0.0135 µM). Moreover, in assay [2] (setting [8]), the concentration for half-maximal inhibition (IC50) was under 0.01 µg/mL. In assay [4], the response vs control in vivo at 0.32 mg/kg was determined as 114%, the response vs control in vivo at 0.63 mg/kg was 142%, the response vs control in vivo at 1.25 mg/kg was found to be 158% and the response vs control in vivo at 2.5 mg/kg was 145%. In addition, the response vs control in vivo at 5 mg/kg in assay [4] worked out at 130%. Further, the IC50 in assay [3] (setting [9]) is 0.15 µg/mL (≈ 0.184 µM).
Regarding `CC(=O)[C@]1(O)Cc2c(O)c3c(c(O)c2[C@@H](O[C@H]2C[C@H](N(C)C)[C@H](O[C@H]4C[C@H](O)[C@H](O[C@H]5CCC(=O)[C@H](C)O5)[C@H](C)O4)[C@H](C)O2)C1)C(=O)c1c(O)cccc1C3=O` [CMN--RDC], the IC50 in assay [1] (setting [7]) worked out at 0.035 µg/mL (≈ 0.0447 µM). Besides, the half-inhibitory concentration (IC50) in assay [2] (setting [8]) is under 0.01 µg/mL. In addition, in assay [4], the response vs control in vivo at 1.25 mg/kg came out at 132%, the response vs control in vivo at 2.5 mg/kg worked out at 160%, the response vs control in vivo at 5 mg/kg was determined as 180% and the response vs control in vivo at 7.5 mg/kg was 145%. Further, in assay [3] (setting [9]), the IC50 was determined as 0.19 µg/mL (≈ 0.242 µM).
For the molecule `COc1cccc2c1C(=O)c1c(O)c3c(c(O)c1C2=O)C[C@@](O)(C(C)=O)C[C@@H]3O[C@H]1C[C@H](N)[C@H](O)[C@H](C)O1` [Daunomycin, reference compound], the IC50 in assay [1] (setting [7]) amounted to 0.18 µg/mL (≈ 0.341 µM); in assay [2] (setting [8]), 0.036 µg/mL (≈ 0.0682 µM); in assay [3] (setting [9]), 0.3 µg/mL (≈ 0.569 µM).
In the case of `COc1cccc2c1C(=O)c1c(O)c3c(c(O)c1C2=O)C[C@@](O)(C(=O)COC(=O)Cc1ccccc1)C[C@@H]3O[C@H]1C[C@H](N(C)C)[C@H](O[C@H]2C[C@H](OC(C)=O)[C@H](O[C@H]3CCC(=O)[C@H](C)O3)[C@H](C)O2)[C@H](C)O1` [14-O--phenylacetyl-3"-O--acetyl AMN--RDC], the values for the concentration for half-maximal inhibition (IC50) in assay [1] (setting [7]), in assay [2] (setting [8]) and in assay [3] (setting [9]) were 0.15 µg/mL (≈ 0.154 µM), 0.03 µg/mL (≈ 0.0308 µM) and 4 µg/mL (≈ 4.11 µM), respectively.
Consider `CC[C@@]1(O)C[C@H](O[C@H]2C[C@H](N(C)C)[C@H](O[C@H]3C[C@H](OC(C)=O)[C@H](O[C@H]4CCC(=O)[C@H](C)O4)[C@H](C)O3)[C@H](C)O2)c2c(cc3c(c2O)C(=O)c2c(O)cccc2C3=O)[C@H]1C(=O)OC` [3"-O--acetyl AKN--RDC], for which, in assay [1] (setting [5]), the 50% inhibitory concentration (IC50) was 0.1 µg/mL (≈ 0.117 µM). Moreover, the IC50 in assay [2] turned out to be 0.06 µg/mL (≈ 0.0703 µM). Besides, in assay [4], the response vs control in vivo at 2.5 mg/kg is 114%, the response vs control in vivo at 5 mg/kg came out at 168%, the response vs control in vivo at 7.5 mg/kg was 186% and the response vs control in vivo at 10 mg/kg was 180%. Besides, the IC50 in assay [3] (setting [6]) is 1.3 µg/mL (≈ 1.52 µM).
As for `COc1cccc2c1C(=O)c1c(O)c3c(c(O)c1C2=O)C[C@@](O)(C(C)=O)C[C@@H]3O[C@H]1C[C@H](N(C)C)[C@H](O[C@H]2C[C@H](O)[C@H](O)[C@H](C)O2)[C@H](C)O1` [DMN--RD], the IC50 in assay [1] (setting [7]) was found to be 0.04 µg/mL (≈ 0.0583 µM). Further, the 50% inhibitory concentration (IC50) in assay [2] (setting [8]) was under 0.01 µg/mL. For the same molecule, in assay [4], the response vs control in vivo at 0.32 mg/kg was found to be 114%, the response vs control in vivo at 0.63 mg/kg amounted to 144%, the response vs control in vivo at 1.25 mg/kg came out at 172% and the response vs control in vivo at 2.5 mg/kg turned out to be 165%. Moreover, the response vs control in vivo at 5 mg/kg in assay [4] is 120%. For the same molecule, the IC50 in assay [3] (setting [9]) stood at 0.28 µg/mL (≈ 0.408 µM).
As to `CC(=O)O[C@H]1C[C@H](O[C@@H]2[C@H](C)O[C@@H](O[C@H]3C[C@](O)(C(C)=O)Cc4c(O)c5c(c(O)c43)C(=O)c3c(O)cccc3C5=O)C[C@@H]2N(C)C)O[C@@H](C)[C@H]1O[C@H]1CCC(=O)[C@H](C)O1` [3"-O--acetyl CMN--RDC], the IC50 in assay [1] (setting [7]) was 0.04 µg/mL (≈ 0.0484 µM). Besides, the concentration for half-maximal inhibition (IC50) in assay [2] (setting [8]) is under 0.01 µg/mL. In addition, in assay [4], the response vs control in vivo at 1.25 mg/kg came to 124%, the response vs control in vivo at 2.5 mg/kg worked out at 159%, the response vs control in vivo at 5 mg/kg was 208% and the response vs control in vivo at 7.5 mg/kg is 214%. For the same molecule, in assay [4], the response vs control in vivo at 10 mg/kg was 165%. Also, in assay [3] (setting [9]), the half-inhibitory concentration (IC50) is 0.36 µg/mL (≈ 0.436 µM).
Regarding `COc1cccc2c1C(=O)c1c(O)c3c(c(O)c1C2=O)C[C@@](O)(C(C)=O)C[C@@H]3O[C@H]1C[C@H](N(C)C)[C@H](O[C@H]2C[C@H](OC(C)=O)[C@H](O[C@H]3CCC(=O)[C@H](C)O3)[C@H](C)O2)[C@H](C)O1` [3"-O--acetyl DMN--RDC], the IC50 in assay [1] (setting [7]) was 0.02 µg/mL (≈ 0.0238 µM). In addition, in assay [2] (setting [8]), the half-inhibitory concentration (IC50) was under 0.01 µg/mL. In addition, in assay [4], the response vs control in vivo at 0.63 mg/kg was found to be 114%, the response vs control in vivo at 1.25 mg/kg was found to be 144%, the response vs control in vivo at 2.5 mg/kg worked out at 180% and the response vs control in vivo at 5 mg/kg is 210%. Besides, the response vs control in vivo at 7.5 mg/kg in assay [4] amounted to 164%. Besides, the half-maximal inhibitory concentration (IC50) in assay [3] (setting [9]) was 0.3 µg/mL (≈ 0.357 µM).
As for `COc1cccc2c1C(=O)c1c(O)c3c(c(O)c1C2=O)C[C@@](O)(C(C)=O)C[C@@H]3O[C@H]1C[C@H](N)[C@H](O[C@H]2C[C@H](O)[C@H](O[C@H]3CCC(=O)[C@H](C)O3)[C@H](C)O2)[C@H](C)O1` [DMN--DaDC], the IC50 in assay [1] (setting [7]) was determined as 0.165 µg/mL (≈ 0.214 µM); in assay [2] (setting [8]), 0.09 µg/mL (≈ 0.117 µM); in assay [3] (setting [9]), 1.15 µg/mL (≈ 1.49 µM).
Consider `COc1cccc2c1C(=O)c1c(O)c3c(c(O)c1C2=O)C[C@@](O)(C(=O)COC(C)=O)C[C@@H]3O[C@H]1C[C@H](N(C)C)[C@H](O[C@H]2C[C@H](OC(C)=O)[C@H](O[C@H]3CCC(=O)[C@H](C)O3)[C@H](C)O2)[C@H](C)O1` [14,3"-O--diacetyl AMN--RDC], for which the values for the IC50 in assay [1] (setting [5]), in assay [2] and in assay [3] (setting [6]) were 0.014 µg/mL (≈ 0.0156 µM), under 0.01 µg/mL and 0.5 µg/mL (≈ 0.557 µM), respectively.

For the origin of these results see patent US4418192A, “Anthracyclinone trisaccharide compounds” (priority 1981, dated 1983).
